In patent publication US20220396569A1 (Carmot Therapeutics, Inc., priority 2021, published 2022) one finds EC50 data, which are given here for 27 molecules.

By EC50 is commonly meant the concentration that produces a half-maximal response.

For this assay, the target named is T1, human GLP-1 receptor (Homo sapiens, UniProt P43220).
T1 construct: expressed in transfected cells
As to the kind of experiment: GLP-1R cAMP Assay (HitHunter cAMP accumulation). It counts as cell-based. To be noted: cAMP accumulation, CHO cells stably overexpressing human GLP-1 receptor, 30 min treatment; read-out: EC50. On the procedure: cAMP accumulation was measured in Chinese hamster ovary (CHO) cells stably overexpressing the human GLP-1 receptor using the HitHunter cAMP Assay for Small Molecules Kit (Eurofins). Briefly, cells were grown in Ham's F12 Nutrient Mix with 10% FBS, and lifted with Cell Dissociation Buffer, Enzyme free, PBS based (ThermoFisher). Cells were pelleted, and resuspended in Hank's buffered saline solution with 10 mM HEPES, and 625 μM 3-isobutyl-1-methylxanthine. The anti-cAMP antibody reagent was then added to cells at a 1:2 ratio and 5 μL of mixture was seeded in 384-well small volume white assay plates, at 10,000 cells/well. Cells were then treated with 50 nL compound using an ECHO 550 acoustic dispenser (Labcyte) in a 20-point dose response format in triplicate for 30 min. Cells were then lysed, and detection reagents added according to the manufacturer's protocol. After overnight incubation, luminescence was measured using a Perkin Elmer Envision plate reader. Dose response curves were analyzed using GraphPad Prism 9.0. […]
(Changes in cAMP serve as a functional read-out for many G protein-coupled receptors.)

T1 sequence (P43220 24-463): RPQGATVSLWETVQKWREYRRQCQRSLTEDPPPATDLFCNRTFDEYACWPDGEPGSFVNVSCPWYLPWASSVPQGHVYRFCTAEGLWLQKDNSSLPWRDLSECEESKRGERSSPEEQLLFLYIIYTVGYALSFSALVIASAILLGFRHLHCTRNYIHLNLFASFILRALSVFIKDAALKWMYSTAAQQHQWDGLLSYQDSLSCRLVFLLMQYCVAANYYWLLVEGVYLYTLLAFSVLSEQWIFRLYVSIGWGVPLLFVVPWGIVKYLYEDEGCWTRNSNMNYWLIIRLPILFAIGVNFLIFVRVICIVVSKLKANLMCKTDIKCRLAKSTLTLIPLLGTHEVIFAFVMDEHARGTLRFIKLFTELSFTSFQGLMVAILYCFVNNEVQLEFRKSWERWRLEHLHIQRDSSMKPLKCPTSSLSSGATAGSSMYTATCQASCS

Turning to `O=C(O)c1ccc2nc(CN3CC[C@@H](c4ccc(F)c(COc5ccc(Cl)cc5F)c4)C3)n(C[C@@H]3CCO3)c2c1` [Compound 446, 2-{[(3S)-3-{3-[(4-chloro-2-fluorophenoxy)methyl]-4-fluorophenyl}pyrrolidin-1-yl]methyl}-1-{[(2S)-oxetan-2-yl]methyl}-1H-1,3-benzodiazole-6-carboxylic acid], the EC50 was < 50 nM.

Consider `O=C(O)c1cc(F)c2nc(CN3CC=C(c4nc(COc5ccc(Cl)cc5Cl)ccc4F)C3)n(C[C@@H]3CCO3)c2c1` [Compound 451, 2-[(3-{6-[(2,4-dichlorophenoxy)methyl]-3-fluoropyridin-2-yl}-2,5-dihydro-1H-pyrrol-1-yl)methyl]-4-fluoro-1-{[(2S)-oxetan-2-yl]methyl}-1H-1,3-benzodiazole-6-carboxylic acid], for which the EC50 is < 50 nM.

Consider `N#Cc1cc(Cl)ccc1OCc1cccc(OC2CN(Cc3nc4ccc(C(=O)O)cc4n3C[C@@H]3CCO3)C2)c1` [Compound 194], for which the EC50 was < 50 nM.

`O=C(O)c1ccc2nc(CN3CC(Oc4ccnc(COc5ccc(Cl)cc5Cl)c4)C3)n(Cc3cnco3)c2c1` [Example 219, 2-((3-((2-((2,4-Dichlorophenoxy)methyl)pyridin-4-yl)oxy)azetidin-1-yl)methyl)-1-(oxazol-5-ylmethyl)-1H-benzo[d]imidazole-6-carboxylic acid]: the EC50 was < 50 nM.

Take `O=C(O)c1cc(F)c2nc(CN3CC=C(c4ccc(F)c(COc5ccc(Cl)cc5F)n4)C3)n(C[C@@H]3CCO3)c2c1` [Compound 413, 2-[(3-{6-[(4-chloro-2-fluorophenoxy)methyl]-5-fluoropyridin-2-yl}-2,5-dihydro-1H-pyrrol-1-yl)methyl]-4-fluoro-1-{[(2S)-oxetan-2-yl]methyl}-1H-1,3-benzodiazole-6-carboxylic acid]: the EC50 is < 50 nM.

With `O=C(O)c1ccc2nc(CN3CC(Cc4cnc(COc5ccc(Cl)cc5Cl)o4)C3)n(C[C@@H]3CCO3)c2c1` [Compound 191], the EC50 is < 50 nM.

As to `N#CCC1(Cn2c(CN3CC[C@H](c4ccnc(COc5ccc(Cl)cc5F)c4)C3)nc3ccc(C(=O)O)cc32)CC1` [Compound 433, 2-{[(3R)-3-{2-[(4-chloro-2-fluorophenoxy)methyl]pyridin-4-yl}pyrrolidin-1-yl]methyl}-1-{[1-(cyanomethyl)cyclopropyl]methyl}-1H-1,3-benzodiazole-6-carboxylic acid], the EC50 is 50 to 500 nM.

Take `O=C(O)c1ccc2nc(CN3CCC(c4cc(COc5ccc(Cl)cc5F)ccn4)C3)n(Cc3ncco3)c2c1` (stereo not drawn) [Compound 398, 2-[(3-{4-[(4-chloro-2-fluorophenoxy)methyl]pyridin-2-yl}pyrrolidin-1-yl)methyl]-1-[(1,3-oxazol-2-yl)methyl]-1H-1,3-benzodiazole-6-carboxylic acid]: the EC50 was < 50 nM.

As to `CCn1cncc1Cn1c(CN2CC(Cc3cccc4c3OC(C)(c3ccc(Cl)cn3)O4)C2)nc2ccc(C(=O)O)cc21` (stereo not drawn) [Compound 185, 2-[(3-{[2-(5-chloropyridin-2-yl)-2-methyl-2H-1,3-benzodioxol-4-yl]methyl}azetidin-1-yl)methyl]-1-[(1-ethyl-1H-imidazol-5-yl)methyl]-1H-1,3-benzodiazole-6-carboxylic acid], the EC50 lay within 50 to 500 nM.

As to `N#Cc1ccc(OCc2nc(C34CC3CN(Cc3nc5c(F)cc(C(=O)O)cc5n3C[C@@H]3CCO3)C4)ccc2F)c(F)c1` (stereo partly drawn) [Compound 523, 2-[(1-{6-[(4-cyano-2-fluorophenoxy)methyl]-5-fluoropyridin-2-yl}-3-azabicyclo[3.1.0]hexan-3-yl)methyl]-4-fluoro-1-{[(2S)-oxetan-2-yl]methyl}-1H-1,3-benzodiazole-6-carboxylic acid], the EC50 is < 50 nM.

`N#CCC1(Cn2c(CN3CC=C(c4nc(COc5ccc(Cl)cc5F)ccc4F)C3)nc3ccc(C(=O)O)cc32)CC1` [Compound 438, 2-[(3-{6-[(4-chloro-2-fluorophenoxy)methyl]-3-fluoropyridin-2-yl}-2,5-dihydro-1H-pyrrol-1-yl)methyl]-1-{[1-(cyanomethyl)cyclopropyl]methyl}-1H-1,3-benzodiazole-6-carboxylic acid]: the EC50 was < 50 nM.

With `CCn1cncc1Cn1c(CN2CC(Oc3ccnc(COc4ccc(Cl)cc4Cl)c3)C2)nc2ccc(C(=O)O)cc21` [Compound 218, 2-{[3-({2-[(2,4-dichlorophenoxy)methyl]pyridin-4-yl}oxy)azetidin-1-yl]methyl}-1-[(1-ethyl-1H-imidazol-5-yl)methyl]-1H-1,3-benzodiazole-6-carboxylic acid], the EC50 was < 50 nM.

Turning to `O=C(O)c1cc(F)c2nc(CN3CC[C@@H](c4cccc(COc5ccc(Cl)cc5F)n4)C3)n(C[C@@H]3CCO3)c2c1` [Compound 441, 2-{[(3R)-3-{6-[(4-chloro-2-fluorophenoxy)methyl]pyridin-2-yl}pyrrolidin-1-yl]methyl}-4-fluoro-1-{[(2S)-oxetan-2-yl]methyl}-1H-1,3-benzodiazole-6-carboxylic acid], the EC50 lay in the range of 50 to 500 nM.

For `O=C(O)c1ccc2nc(CN3CCC(c4ccc(F)c(COc5ccc(Cl)cc5Cl)c4)C3)n(C[C@@H]3CCO3)c2c1` (stereo partly drawn) [Compound 389, 2-[(3-{3-[(2,4-dichlorophenoxy)methyl]-4-fluorophenyl}pyrrolidin-1-yl)methyl]-1-{[(2S)-oxetan-2-yl]methyl}-1H-1,3-benzodiazole-6-carboxylic acid], the concentration giving a half-maximal response (EC50) is < 50 nM.

On to `N#Cc1ccc(OCc2nc([C@@H]3C[C@@H](CF)N(Cc4nc5ccc(C(=O)O)cc5n4C[C@@H]4CCO4)C3)ccc2F)c(F)c1` (single isomer, unassigned) [Compound 526], for which the EC50 is 50 to 500 nM.

In the case of `O=C(O)c1ccc2nc(CN3CCC(c4cccc(Oc5ccccc5)c4)C3)n(C[C@@H]3CCO3)c2c1` (stereo partly drawn) [Example 119, 1-(((S)-Oxetan-2-yl)methyl)-2-((3-(3-phenoxyphenyl)pyrrolidin-1-yl)methyl)-1H-benzo[d]imidazole-6-carboxylic acid], the EC50 is 50 to 500 nM.

On to `O=C(O)c1ccc2nc(CN3CC=C(c4cc(COc5ccc(Cl)cc5F)ccc4F)C3)n(C[C@@H]3CCO3)c2c1` [Compound 417, 2-[(3-{5-[(4-chloro-2-fluorophenoxy)methyl]-2-fluorophenyl}-2,5-dihydro-1H-pyrrol-1-yl)methyl]-1-{[(2S)-oxetan-2-yl]methyl}-1H-1,3-benzodiazole-6-carboxylic acid], for which the EC50 is < 50 nM.

Turning to `N#Cc1ccc(OCc2nccc(Oc3ccc(Cc4nc5c(F)cc(C(=O)O)cc5n4C[C@@H]4CCO4)c(F)c3)n2)c(F)c1` [Compound 467], the EC50 was < 50 nM.

Consider `O=C(O)c1cc(F)c2nc(Cc3cc(F)c(Oc4ccnc(COc5ccc(Cl)cc5F)c4)cc3F)n(C[C@@H]3CCO3)c2c1` [Compound 538, 2-{[4-({2-[(4-chloro-2-fluorophenoxy)methyl]pyridin-4-yl}oxy)-2,5-difluorophenyl]methyl}-4-fluoro-1-{[(2S)-oxetan-2-yl]methyl}-1H-1,3-benzodiazole-6-carboxylic acid], for which the EC50 is < 50 nM.

Regarding `N#Cc1ccc(OCc2nc(N3CCN(Cc4nc5ccc(C(=O)O)cc5n4C[C@@H]4CCO4)C3=O)ccc2F)c(F)c1` [Compound 535, (S)-2-((3-(6-((4-Cyano-2-fluorophenoxy)methyl)-5-fluoropyridin-2-yl)-2-oxoimidazolidin-1-yl)methyl)-1-(oxetan-2-ylmethyl)-1H-benzo[d]imidazole-6-carboxylic acid], the EC50 is > 500 nM.

For the molecule `O=C(O)c1ccc2nc(CN3CC[C@@H](c4cccc(COc5ccc(Cl)cc5F)c4)C3)n(C[C@@H]3CCO3)c2c1` (single isomer, unassigned) [Example 411], the EC50 is < 50 nM.

For the molecule `O=C(O)c1ccc2nc(CN3CC[C@@H](c4cccc(COc5ccc(Cl)cc5Cl)c4)C3)n(C[C@@H]3CCO3)c2c1` (single isomer, unassigned) [Example 405], the EC50 is < 50 nM.

Take `N#Cc1ccc(OCc2cc(Oc3ccc(Cc4nc5c(F)cc(C(=O)O)cc5n4C[C@@H]4CCO4)c(C#N)c3)ccn2)c(F)c1` [Compound 543, 2-{[2-cyano-4-({2-[(4-cyano-2-fluorophenoxy)methyl]pyridin-4-yl}oxy)phenyl]methyl}-4-fluoro-1-{[(2S)-oxetan-2-yl]methyl}-1H-1,3-benzodiazole-6-carboxylic acid]: the EC50 is < 50 nM.

`N#Cc1cc(Cl)ccc1OCc1cccc(OC2CN(Cc3nc4ccc(C(=O)O)cc4n3Cc3ncco3)C2)c1` [Compound 229, 2-[(3-{3-[(4-chloro-2-cyanophenoxy)methyl]phenoxy}azetidin-1-yl)methyl]-1-[(1,3-oxazol-2-yl)methyl]-1H-1,3-benzodiazole-6-carboxylic acid]: the concentration giving a half-maximal response (EC50) is < 50 nM.

Take `O=C(O)c1ccc2nc(CN3CCC(c4ccc(F)c(COc5ccc(Cl)cc5F)n4)C3)n(C[C@@H]3CCO3)c2c1` (stereo partly drawn) [Compound 409, 2-[(3-{6-[(4-chloro-2-fluorophenoxy)methyl]-5-fluoropyridin-2-yl}pyrrolidin-1-yl)methyl]-1-{[(2S)-oxetan-2-yl]methyl}-1H-1,3-benzodiazole-6-carboxylic acid]: the EC50 is < 50 nM.

On to `O=C(O)c1ccc2nc(CN3CC[C@@H](c4ccc(F)c(COc5ccc(Cl)cc5F)n4)C3)n(C[C@@H]3CCO3)c2c1` (single isomer, unassigned) [Compound 516], for which the EC50 is < 50 nM.

Turning to `N#Cc1ccc(OCc2nccc(Oc3ccc(Cc4nc5c(F)cc(C(=O)O)cc5n4C[C@@H]4CCO4)cc3F)n2)c(F)c1` [Compound 539, (S)-2-(4-((2-((4-cyano-2-fluorophenoxy)methyl)pyrimidin-4-yl)oxy)-3-fluorobenzyl)-4-fluoro-1-(oxetan-2-ylmethyl)-1H-benzo[d]imidazole-6-carboxylic acid], the EC50 was < 50 nM.
